Source: the supplement of paper PMC11061612

Legend:
Experiment in all cases: Bliss excess, mean over the matrix (fraction); higher = more synergy
[1] = test system: BFTC-905 (Bladder Carcinoma)
Procedure, shortened: (§1)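 Cell lines grown in DMEM/F12 or RPMI with 10% FBS were plated in 1536-well plates and held 24 hours at 37°C, 5% CO2 before 72 hours of exposure to two-drug dose matrices, with DMSO typically at 0.2%. CellTiter-Glo 2.0 luminescence gave viability, which was converted to inhibition. Vehicle wells were set to 0 and blank wells to 1. Combination Emax is the second-highest inhibition in the matrix, and Bliss excess is the observed combination effect minus the expected EA + EB − EA·EB, where EA and EB are the single-agent effects.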

[2] = test system: CHP-212 (Neuroblastoma)
Procedure, shortened: as §1

[3] = test system: COLO-678 (Colorectal Carcinoma)
Procedure, shortened: as §1

[4] = test system: DND-41 (T-Lymphoblastic Leukemia)
Procedure, shortened: as §1

[5] = test system: ES1 (Ewing's Sarcoma)
Procedure, shortened: as §1

[6] = test system: GR-ST (B-Lymphoblastic Leukemia)
Procedure, shortened: as §1

[7] = test system: HL-60 (Acute Myeloid Leukemia)
Procedure, shortened: as §1

[8] = test system: K-562 (Chronic Myelogenous Leukemia)
Procedure, shortened: as §1

[9] = test system: KARPAS-45 (T-Lymphoblastic Leukemia)
Procedure, shortened: as §1

[10] = test system: KCL-22 (Chronic Myelogenous Leukemia)
Procedure, shortened: as §1

[11] = test system: KM12 (Colorectal Carcinoma)
Procedure, shortened: as §1

[12] = test system: L-540 (Hodgkin's Lymphoma)
Procedure, shortened: as §1

[13] = test system: LN-18 (Glioblastoma)
Procedure, shortened: as §1

[14] = test system: MOLT-16 (T-Lymphoblastic Leukemia)
Procedure, shortened: as §1

[15] = test system: NCI-H2818 (Mesothelioma)
Procedure, shortened: as §1

[16] = test system: PANC-08-13 (Pancreatic Carcinoma)
Procedure, shortened: as §1

[17] = test system: SR (Other Blood Carcinomas)
Procedure, shortened: as §1

[18] = test system: SW837 (Colorectal Carcinoma)
Procedure, shortened: as §1

[19] = test system: TOV-112D (Ovarian Carcinoma)
Procedure, shortened: as §1

[20] = test system: WM-115 (Melanoma)
Procedure, shortened: as §1

| Compound | Bliss excess [1] | Bliss excess [2] | Bliss excess [3] | Bliss excess [4] | Bliss excess [5] | Bliss excess [6] | Bliss excess [7] | Bliss excess [8] | Bliss excess [9] | Bliss excess [10] | Bliss excess [11] | Bliss excess [12] | Bliss excess [13] | Bliss excess [14] | Bliss excess [15] | Bliss excess [16] | Bliss excess [17] | Bliss excess [18] | Bliss excess [19] | Bliss excess [20] |
| --- | --- | --- | --- | --- | --- | --- | --- | --- | --- | --- | --- | --- | --- | --- | --- | --- | --- | --- | --- | --- |
| Cc1cc2ncnn2cc1Nc1ncc2c(n1)n(C1CCOCC1)c(=O)n2C [AZD7648] + O=C(c1cc(Cc2n[nH]c(=O)c3ccccc23)ccc1F)N1CCN(C(=O)C2CC2)CC1 [Olaparib] (first compound max 10 µM, 7x7, partner max 10 µM) | -0.0299 | -0.0391 | -0.0177 | 0.0069 | -0.0604 | -0.0706 | -0.0151 | 0.0107 | 0.0031 | -0.0367 | -0.035 | -0.0352 | -0.0351 | -0.019 | -0.0776 | -0.0538 | 0.0433 | -0.0246 | -0.0285 | -0.0391 |
| NC1(C(=O)N[C@@H](CCO)c2ccc(Cl)cc2)CCN(c2ncnc3[nH]ccc23)CC1 [Capivasertib] + CC(=O)c1c(C)c2cnc(Nc3ccc(N4CCNCC4)cn3)nc2n(C2CCCC2)c1=O [Palbociclib] (first compound max 10 µM, 7x7, partner max 10 µM) | 0.0048 | 0.0311 | -0.0295 | -0.0146 | 0.0697 | -0.0067 | -0.0406 | 0.0122 | 0.0327 | 0.0438 | 0.0176 | -0.0243 | 0.0368 | -0.0011 | -0.0025 | -0.0151 | 0.0289 | -0.0531 | 0.0029 | -0.0469 |
| NC1(C(=O)N[C@@H](CCO)c2ccc(Cl)cc2)CCN(c2ncnc3[nH]ccc23)CC1 [Capivasertib] + CC(C)n1c(=O)n(C)c2cnc3cc(F)c(-c4ccc(OCCCN5CCCCC5)nc4)cc3c21 [AZD1390] (first compound max 10 µM, 7x7, partner max 0.3 µM) | -0.0329 | -0.0965 | -0.0754 | -0.0595 | -0.111 | -0.0449 | -0.0656 | 0.0077 | -0.0374 | -0.0116 | -0.0399 | 0.0167 | -0.0325 | -0.0658 | -0.0447 | -0.0908 | -0.0452 | -0.0461 | -0.0276 | -0.0368 |
| NC1(C(=O)N[C@@H](CCO)c2ccc(Cl)cc2)CCN(c2ncnc3[nH]ccc23)CC1 [Capivasertib] + CCN(CCO)CCCOc1ccc2c(Nc3cc(CC(=O)Nc4cccc(F)c4)[nH]n3)ncnc2c1 [AZD2811] (first compound max 10 µM, 7x7, partner max 1 µM) | -0.0462 | -0.008 | -0.0218 | 0.0071 | -0.0207 | 0.0222 | -0.0819 | -0.0151 | -0.0426 | 0.0544 | -0.0303 | 0.0547 | -0.022 | -0.0183 | -0.0676 | -0.0015 | -0.0053 | -0.0646 | 0.0175 | -0.0223 |
| NC1(C(=O)N[C@@H](CCO)c2ccc(Cl)cc2)CCN(c2ncnc3[nH]ccc23)CC1 [Capivasertib] + COc1nnc2ccc(N3CCC(c4ccc(OCCN5CCN(C)C(=O)[C@H]5C)cc4)CC3)nn12 [AZD5153] (first compound max 10 µM, 7x7, partner max 1 µM) | -0.0346 | 0.0469 | -0.0688 | 0.0339 | 0.035 | -0.0565 | 0.0346 | 0.0061 | 0.0133 | 0.0441 | 0.0143 | -0.0794 | 0.0494 | 0.0458 | 0.0025 | 0.0483 | -0.0166 | -0.0301 | 0.0088 | 0.0031 |
| NC1(C(=O)N[C@@H](CCO)c2ccc(Cl)cc2)CCN(c2ncnc3[nH]ccc23)CC1 [Capivasertib] + C[C@@H]1COCCN1C2=NC(=NC(=C2)C3(CC3)[S@](=N)(=O)C)C4=C5C=CNC5=NC=C4 [AZD6738] (first compound max 10 µM, 7x7, partner max 10 µM) | -0.0391 | -0.0156 | -0.051 | -0.0221 | -0.0448 | -0.035 | -0.04 | -0.0383 | -0.0238 | 0.0044 | 0.0297 | -0.0059 | -0.0463 | -0.0161 | -0.0315 | 0.0128 | 0.016 | -0.0862 | -0.0632 | -0.0502 |
| NC1(C(=O)N[C@@H](CCO)c2ccc(Cl)cc2)CCN(c2ncnc3[nH]ccc23)CC1 [Capivasertib] + Cn1cnc2c(F)c(Nc3ccc(Br)cc3Cl)c(C(=O)NOCCO)cc21 [Selumetinib] (first compound max 10 µM, 7x7, partner max 10 µM) | -0.0047 | -0.0277 | -0.0398 | 0.0293 | 0.0724 | -0.0428 | 0.021 | 0.0713 | 0.0796 | 0.117 | 0.016 | -0.0345 | 0.0373 | 0.0683 | -0.0014 | 0.0495 | 0.0682 | -0.0357 | 0.0272 | 0.071 |
| Cc1nc(Nc2ncc(C(=O)Nc3c(C)cccc3Cl)s2)cc(N2CCN(CCO)CC2)n1 [Dasatinib] + CC(=O)Nc1cccc(-n2c(=O)n(C3CC3)c(=O)c3c(Nc4ccc(I)cc4F)n(C)c(=O)c(C)c32)c1 [Trametinib] (first compound max 2 µM, 7x7, partner max 1 µM) | 0.0926 | 0.0235 | -0.0945 | -0.0333 | -0.0643 | 0.0189 | -0.159 | -0.0956 | 0.0017 | -0.0501 | -0.108 | -0.0484 | -0.0433 | -0.0184 | -0.0109 | 0.143 | -0.0069 | 0.0448 | 0.0773 | 0.118 |
| COc1cccc2c1C(=O)c1c(O)c3c(c(O)c1C2=O)C[C@@](O)(C(=O)CO)C[C@@H]3O[C@H]1C[C@H](N)[C@H](O)[C@H](C)O1 [Doxorubicin] + Cc1cc2ncnn2cc1Nc1ncc2c(n1)n(C1CCOCC1)c(=O)n2C [AZD7648] (first compound max 1 µM, 7x7, partner max 10 µM) | 0.131 | 0.0611 | 0.0188 | 0.115 | 0.119 | 0.0279 | 0.108 | 0.076 | -0.0006 | 0.086 | 0.0554 | 0.0793 | 0.0386 | 0.143 | -0.0019 | -0.0102 | 0.0651 | 0.0068 | 0.0679 | -0.0234 |
| COc1cc2ncnc(Nc3ccc(F)c(Cl)c3)c2cc1OCCCN1CCOCC1 [Gefitinib] + CC(C)n1c(=O)n(C)c2cnc3cc(F)c(-c4ccc(OCCCN5CCCCC5)nc4)cc3c21 [AZD1390] (first compound max 10 µM, 7x7, partner max 0.3 µM) | -0.0821 | -0.0352 | -0.111 | -0.0309 | -0.0432 | -0.0303 | -0.0852 | -0.0304 | -0.0543 | -0.0573 | -0.0406 | -0.0591 | -0.033 | -0.0401 | -0.0707 | -0.0511 | -0.0109 | -0.06 | -0.0392 | -0.0856 |
| CS(=O)(=O)CCNCc1ccc(-c2ccc3ncnc(Nc4ccc(OCc5cccc(F)c5)c(Cl)c4)c3c2)o1 [Lapatinib] + C[C@@H](Oc1cc(-c2cnn(C3CCNCC3)c2)cnc1N)c1c(Cl)ccc(F)c1Cl [Crizotinib] (first compound max 10 µM, 7x7, partner max 10 µM) | -0.0525 | -0.0741 | -0.0488 | -0.0272 | -0.0346 | -0.025 | 0.019 | -0.0453 | 0.0044 | 0.0178 | -0.0327 | -0.0731 | -0.0342 | 0.0062 | -0.0019 | -0.0246 | 0.019 | -0.0345 | 0.0028 | -0.0237 |
| CC(=O)c1c(C)c2cnc(Nc3ccc(N4CCNCC4)cn3)nc2n(C2CCCC2)c1=O [Palbociclib] + CC1(C)CCC(CN2CCN(c3ccc(C(=O)NS(=O)(=O)c4ccc(NCC5CCOCC5)c([N+](=O)[O-])c4)c(Oc4cnc5[nH]ccc5c4)c3)CC2)=C(c2ccc(Cl)cc2)C1 [Venetoclax] (first compound max 10 µM, 7x7, partner max 1 µM) | -0.046 | 0.023 | 0.0158 | -0.0292 | -0.0214 | 0.0074 | -0.0215 | -0.0313 | 0.0598 | 0.0057 | -0.0041 | -0.0852 | 0.0187 | 0.0452 | -0.0146 | -0.0361 | -0.0245 | -0.0671 | 0.0283 | -0.0708 |
| CC(=O)c1c(C)c2cnc(Nc3ccc(N4CCNCC4)cn3)nc2n(C2CCCC2)c1=O [Palbociclib] + Cc1c2c(nn1C)CSCc1cc(n(C)n1)CSc1cc(c3ccccc3c1)OCCCc1c(C(=O)O)n(C)c3c-2c(Cl)ccc13 [AZD5991] (first compound max 10 µM, 7x7, partner max 1 µM) | -0.0167 | 0.0199 | -0.0814 | 0.0043 | -0.0169 | 0.0096 | -0.0214 | -0.0141 | -0.0071 | 0.0403 | -0.0194 | -0.0063 | -0.0153 | -0.0427 | -0.0386 | -0.0427 | 0.0286 | -0.0582 | 0.0428 | -0.0282 |
